{"source": "patent US5120641A", "about": "(Daiichi Pure Chemicals Co., Ltd., priority 1989, dated 1992)", "key": {"[1]": {"molecular_target": "T1, serotonin uptake sites ([^3 H]6-nitroquipazine binding, rat brain membranes) (Rattus norvegicus, UniProt P31652)", "T1 construct": "from tissue; host or cells: rat brain minus cerebellum, pons and medulla oblongata; washed membrane homogenate", "T1 sequence (P31652 whole entry)": "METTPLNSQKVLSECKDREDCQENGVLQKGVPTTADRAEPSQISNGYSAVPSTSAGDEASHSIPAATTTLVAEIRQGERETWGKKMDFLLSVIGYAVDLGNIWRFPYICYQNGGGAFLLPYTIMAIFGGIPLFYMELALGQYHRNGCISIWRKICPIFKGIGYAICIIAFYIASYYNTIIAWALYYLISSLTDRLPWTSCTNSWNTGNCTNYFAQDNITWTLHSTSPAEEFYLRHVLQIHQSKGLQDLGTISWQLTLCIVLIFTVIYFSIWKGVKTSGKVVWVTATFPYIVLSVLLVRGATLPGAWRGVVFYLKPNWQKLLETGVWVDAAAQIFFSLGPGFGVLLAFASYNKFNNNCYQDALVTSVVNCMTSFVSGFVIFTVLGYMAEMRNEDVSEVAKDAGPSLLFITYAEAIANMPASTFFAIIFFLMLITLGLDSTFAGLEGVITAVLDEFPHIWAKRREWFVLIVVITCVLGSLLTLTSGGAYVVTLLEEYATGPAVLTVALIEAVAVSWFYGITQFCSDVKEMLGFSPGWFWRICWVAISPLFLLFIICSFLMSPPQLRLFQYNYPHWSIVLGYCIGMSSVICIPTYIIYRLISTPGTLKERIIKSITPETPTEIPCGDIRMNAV", "assay": "Inhibition of [^3 H]6-nitroquipazine binding by several drugs", "protocol": "(§1) Rats were killed by decapitation and the brains (minus cerebellum, pons medulla and oblongata) were rapidly removed. The brain tissue was homogenized in 50 volumes of ice-cold buffer (50 mM Tris-HCl, 120 mM NaCl, 5 mM KCl, pH 7.4) with a Kinematica Polytron homogenizer at setting 5 for 30 seconds. The homogenate was centrifuged at 48,000×g for 10 minutes. The resulting pellet was resuspended in 50 volumes of ice-cold buffer and recentrifuged. The final pellet was resuspended in the same 50 volumes of buffer.\n(§2) Aliquots of membrane suspension were incubated with [^3 H]6-nitroquipazine (30-1,200 pM) at 22° C. for 2 hours for the equilibrium saturation. After the addition of 4 ml of ice-cold buffer the homogenates were rapidly filtered through Whatman GF/C filters pretreated with 0.05% polyethleneimine. The filters were washed with ice-cold buffer (3×5 ml). The radioactivity trapped by the filters was determined by a liquid scintillation counter.\nTen different concentrations of the drugs were used for each determination. Aliquots of membrane suspension were incubated with [^3 H]6-nitroquipazine at 22° C. for 2 hours. The specific binding of [^3 H]6-nitroquipazine was determined as described in Example 2.\nDrug IC50 values were defined by means of the iterative non-linear least-squares method."}, "rat cerebral cortex": {"system": "rat cerebral cortex", "assay": "Serotonin and 5-hydroxyindoleacetic acid content in cerebral cortex of p-chloroamphetamine lesioned rats", "type": "in vivo", "protocol": "(§3) Rats were injected i.p. three times (24 hours interval) with p-chloroamphetamine (2.5 mg/kg), and were decapitated 7 days after final injection. The cerebral cortex of rat brain was rapidly dissected, and [^3 H]6-nitroquipazine binding to cerebral cortical membranes was examined as described previously."}, "[2]": {"molecular_target": "T2, serotonin uptake sites (rat cerebral cortical membranes) (Rattus norvegicus, UniProt P31652)", "T2 construct": "The cerebral cortex of rat brain was rapidly dissected; from tissue; host or cells: rat cerebral cortex membranes (p-chloroamphetamine-treated rats)", "T2 sequence (P31652 whole entry)": "as above", "assay": "[^3 H]6-nitroquipazine binding to cerebral cortical membranes after serotonin neuronal lesions with p-chloroamphetamine", "conditions": "for Bmax / Kd: cerebral cortex, mean ± S.E.M.", "protocol": "as §2, §3"}, "[3]": {"molecular_target": "serotonin uptake sites (rat brain regions) (Rattus norvegicus, UniProt P31652)", "sequence (P31652 whole entry)": "as above", "assay": "Regional distribution of [^3 H]6-nitroquipazine binding in rat brain", "protocol": "as §2\nRats were killed by decapitation and the brains were dissected (cerebral cortex, striatum, hippocampus, hypothalamus, midbrain, cerebellum, pons medulla and oblongata) on ice. [^3 H]6-Nitroquipazine binding was estimated as described previously."}, "[4]": {"molecular_target": "T3, serotonin uptake sites (rat brain membranes) (Rattus norvegicus, UniProt P31652)", "T3 construct": "from tissue; host or cells: rat brain minus cerebellum, pons and medulla oblongata; washed membrane homogenate", "T3 sequence (P31652 whole entry)": "as above", "assay": "[^3 H]6-Nitroquipazine saturation binding to rat brain membranes (Scatchard analysis)", "protocol": "as §1, §2"}, "[5]": {"conditions": "[…] [^3 H]6-nitroquipazine, 22° C., 2 hours"}}, "note": "“Also recorded” adds a separate entry of the source. Where two headings read alike, the source gives them in different places.", "data": [{"compound": "O=[N+]([O-])c1ccc2nc(N3CCNCC3)ccc2c1", "note": "[6-Nitroquipazine, 6-nitro-2-piperazinylquinoline]", "values": [{"measurement": "Ki", "setting": "[1]; [5]", "result": "low nanomolar ranges"}, {"measurement": "Ki", "setting": "[1]; read-out: Ki", "result": 0.128, "unit": "nM"}]}, {"compound": "CC(N)Cc1ccc(Cl)cc1", "note": "(centres unmarked) [p-chloroamphetamine]", "values": [{"measurement": "endogenous serotonin levels and [^3 H]6-nitroquipazine binding", "setting": "rat cerebral cortex; destruction of serotonin neuron terminals by p-chloroamphetamine", "result": "decreases in endogenous serotonin levels and [^3 H]6-nitroquipazine binding"}, {"measurement": "content of 5-hydroxyindoleacetic acid in the cerebral cortex", "setting": "rat cerebral cortex; lesioned rats, p-chloroamphetamine 2.5 mg/kg i.p. three times, control 0.2123±0.038", "result": "0.0541±0.008", "unit": "ng/mg tissue"}, {"measurement": "content of serotonin in the cerebral cortex", "setting": "rat cerebral cortex; lesioned rats, p-chloroamphetamine 2.5 mg/kg i.p. three times, control 0.3362±0.037", "result": "0.129±0.037", "unit": "ng/mg tissue"}, {"measurement": "decrease of [^3 H]6-nitroquipazine binding to cortical membranes of lesioned rats compared to controls", "setting": "[2]; p-chloroamphetamine 2.5 mg/kg i.p. three times, 7 days after final injection", "result": 72, "unit": "%"}, {"measurement": "Kd change in lesioned rats", "setting": "[2]; p-chloroamphetamine 2.5 mg/kg i.p. three times, compared to controls", "result": "slightly decreased"}]}, {"compound": "c1ccc2c(CCC3CCNCC3)c[nH]c2c1", "note": "[Indalpine]", "values": [{"measurement": "Ki", "setting": "[1]; [5]", "result": "low nanomolar ranges"}, {"measurement": "Ki", "setting": "[1]; read-out: Ki", "result": 1.93, "unit": "nM"}]}, {"compound": "O=[N+]([O-])c1ccc2nc(N3CCNCC3)ccc2c1", "note": "[[^3 H]6-nitroquipazine, Tritium-labeled 6-nitro-2-piperazinylquinoline]", "values": [{"measurement": "Bmax", "setting": "[3]; Cerebellum", "result": "91.2 ± 4.0", "unit": "fmole/mg protein"}, {"measurement": "Bmax", "setting": "[3]; Cortex", "result": "565.6 ± 28.3", "unit": "fmole/mg protein"}, {"measurement": "Bmax", "setting": "[3]; Hippocampus", "result": "612.2 ± 35.4", "unit": "fmole/mg protein"}, {"measurement": "Bmax", "setting": "[3]; Hypothalamus", "result": "1211.8 ± 33.2", "unit": "fmole/mg protein"}, {"measurement": "Bmax", "setting": "[3]; Medulla oblongata", "result": "598.2 ± 25.6", "unit": "fmole/mg protein"}, {"measurement": "Bmax", "setting": "[3]; Midbrain", "result": "1107.8 ± 30.2", "unit": "fmole/mg protein"}, {"measurement": "Bmax", "setting": "[3]; Striatum", "result": "807.4 ± 41.5", "unit": "fmole/mg protein"}, {"measurement": "specific binding by brain region", "setting": "[3]; rat brain regions", "result": "highest in the hypothalamus and midbrain; also recorded: moderately high in the striatum, hippocampus, medulla oblongata and cerebral cortex; also recorded: lowest in the cerebellum"}, {"measurement": "Bmax", "setting": "[2]; control rats", "result": "616.0 ± 64.4", "unit": "fmole/mg protein"}, {"measurement": "Kd", "setting": "[2]; control rats", "result": 0.141, "unit": "nM"}, {"measurement": "Bmax", "setting": "[2]; rats treated with p-chloroamphetamine (2.5 mg/kg i.p. x3), ***P < 0.001 vs control", "result": "170.5 ± 44.8", "unit": "fmole/mg protein"}, {"measurement": "Kd", "setting": "[2]; rats treated with p-chloroamphetamine (2.5 mg/kg i.p. x3), *P < 0.01 vs control", "result": "0.108 ± 0.01", "unit": "nM"}, {"measurement": "binding to rat brain membranes", "setting": "[4]; FIG. 1", "result": "bound with high affinity to rat brain membranes in a saturable and reversible fashion"}, {"measurement": "specific binding as share of total binding", "setting": "[4]; at equilibrium, 110 pM [^3 H]6-nitroquipazine, non-specific: 1 μM paroxetine", "result": 95, "unit": "%"}, {"measurement": "potency compared with [^3 H]imipramine and [^3 H]paroxetine", "setting": "[4]; no comparative data given", "result": "more potent than [^3 H]imipramine and [^3 H]paroxetine"}, {"measurement": "Kd", "setting": "[4]; rat brain membranes, 22° C., 2 hours, 30-1,200 pM radioligand, Scatchard analysis, read-out: apparent equilibrium dissociation constant (Kd)", "result": 0.093, "unit": "nM"}, {"measurement": "maximal number of binding sites (Bmax)", "setting": "[4]; rat brain membranes, 22° C., 2 hours, Scatchard analysis", "result": 832, "unit": "fmol/mg protein"}]}]}
